Measured values taken from ChEMBL document CHEMBL2331141, “Synthesis, characterization, screening and docking analysis of 4-anilinoquinazoline derivatives as tyrosine kinase inhibitors” (Eur J Med Chem, 2013).

Experiments:
[1] = target: T1, Epidermal growth factor receptor (Homo sapiens, UniProt P00533); experiment: Inhibition of EGFR (unknown origin)
[2] = target: T1, Epidermal growth factor receptor; experiment: Inhibition of EGFR (unknown origin) using biotinylated-PTP1B (Tyr66) as substrate incubated for 5 mins prior to substrate addition measured after 1 hr by ELISA

T1 sequence (P00533 whole entry): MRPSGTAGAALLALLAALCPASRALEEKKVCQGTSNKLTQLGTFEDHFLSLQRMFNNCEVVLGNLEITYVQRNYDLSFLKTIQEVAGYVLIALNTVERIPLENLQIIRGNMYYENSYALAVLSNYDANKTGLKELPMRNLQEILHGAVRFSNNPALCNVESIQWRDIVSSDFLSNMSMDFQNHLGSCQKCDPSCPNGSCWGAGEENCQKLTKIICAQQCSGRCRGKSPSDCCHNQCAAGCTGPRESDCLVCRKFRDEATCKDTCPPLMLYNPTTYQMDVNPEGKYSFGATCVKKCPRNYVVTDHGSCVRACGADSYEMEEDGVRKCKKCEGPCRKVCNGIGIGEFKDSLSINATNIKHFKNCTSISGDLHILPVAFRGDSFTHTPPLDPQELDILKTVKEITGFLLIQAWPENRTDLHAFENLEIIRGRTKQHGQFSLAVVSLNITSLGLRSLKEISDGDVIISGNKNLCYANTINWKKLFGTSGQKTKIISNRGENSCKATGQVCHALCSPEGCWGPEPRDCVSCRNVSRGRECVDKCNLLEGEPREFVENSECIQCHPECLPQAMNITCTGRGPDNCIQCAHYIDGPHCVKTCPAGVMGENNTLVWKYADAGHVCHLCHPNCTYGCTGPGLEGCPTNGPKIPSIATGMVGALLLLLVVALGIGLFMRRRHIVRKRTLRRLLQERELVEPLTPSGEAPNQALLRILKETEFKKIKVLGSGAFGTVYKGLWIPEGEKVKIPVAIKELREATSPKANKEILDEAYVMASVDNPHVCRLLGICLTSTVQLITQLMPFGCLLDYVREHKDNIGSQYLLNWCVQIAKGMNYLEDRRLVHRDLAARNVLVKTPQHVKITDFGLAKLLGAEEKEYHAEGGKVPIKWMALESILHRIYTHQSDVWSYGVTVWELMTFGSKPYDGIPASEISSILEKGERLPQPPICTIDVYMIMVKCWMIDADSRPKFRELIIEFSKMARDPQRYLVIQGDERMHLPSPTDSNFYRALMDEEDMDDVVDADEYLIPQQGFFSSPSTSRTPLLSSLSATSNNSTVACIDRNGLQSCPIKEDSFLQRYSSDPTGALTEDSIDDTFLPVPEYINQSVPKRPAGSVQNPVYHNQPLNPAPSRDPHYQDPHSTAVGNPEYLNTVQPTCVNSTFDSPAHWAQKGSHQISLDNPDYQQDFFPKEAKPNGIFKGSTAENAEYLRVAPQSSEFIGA

Structure (SMILES) | IC50 [1] [nM] | IC50 [2] [nM]
COc1cc2ncnc(Nc3ccc(C(C)(F)F)cc3)c2cc1OC | 4700 | 
COc1cc2ncnc(Nc3ccccc3C(F)(F)F)c2cc1OC | 10000 | 
COc1cc2ncnc(Nc3cccc(-c4ccccc4)c3)c2cc1OC |  | 127
COc1cc2ncnc(Nc3cccc(C#N)c3)c2cc1OC |  | 413
COc1cc2ncnc(Nc3ccc(F)c(Cl)c3)c2cc1OCCO |  | 63.4
COc1cc2ncnc(Nc3ccc(F)c(Cl)c3)c2cc1OCCNCCN |  | 12.1
COc1cc2ncnc(Nc3ccc(F)c(Cl)c3)c2cc1OCCCNCCN |  | 13.6
COc1cc2ncnc(Nc3cccc(SC)c3)c2cc1OC |  | 127
COc1cc2ncnc(Nc3cccc(C(F)(F)F)c3)c2cc1OC | 15 | 
COc1cc2ncnc(Nc3ccccc3)c2cc1OC |  | 201
